Data on 40 molecules can be found in US20250171452A1 (Viscient Bio, Inc., priority 2022, published 2025).

The target of test [1] is IDO2 (Homo sapiens (Human), UniProt Q6ZQW0). Description: Cellular IDO2 assay, doxycycline and 5-methoxy-L-tryptophan medium, colorimetric. It counts as cell-based.
Procedure: IDO2 inhibition at the cellular level was evaluated in vitro using the following procedure.
Using cell culture medium, the volume of the suspension was adjusted to achieve a cell concentration of 20,000 cells/well (90 uL/well).
5-Methoxy-L-tryptophan powder was dissolved in the culture medium to a concentration of 10 mM, then filtered and sterilized with a 0.22 um filter. Doxycycline powder was dissolved in ddH2O to a concentration of 100 ug/ml, then filtered and sterilized with a 0.22 um filter. 5-aminolevulinic acid powder was dissolved in ddH2O to a concentration of 400 mM, then filtered and sterilized with a 0.22 um filter. A 2× Assay medium was then by diluting the doxycycline (from 100 ug/ml to 2 ug/ml) and 5-Methoxy-L-tryptophan (from 10 mM to 5 mM) in culture medium. The 5-aminolevulinic acid solution was also added to the solution (diluting the concentration from 400 mM to 2 mM) to get a 2× working solution.
After incubation, plates and reagents were allows to equilibrate to room temperature. […] Trichloroacetic acid powder was dissolved in ddH2O to prepare 6.1N trichloroacetic acid. […] The plates were incubated at 55° C. for 40 minutes, and then centrifuged for 10 min at 2500 rpm. […] Measurement of the signal was performed using Envision at 480 nm. Throughout the foregoing process, care was taken to prevent exposure to light.
Test [2] concerns the target Indoleamine 2,3-dioxygenase 1 (IDO1) (Homo sapiens (Human), UniProt P14902). Description: Cellular IDO1 assay: kynurenine production in IFN-γ-stimulated HeLa cells, colorimetric.
[3] abbreviates: cellular level, 72 h incubation, signal at 480 nm.

SMILES strings stand for the structures. Counter-ions that a name gives are not always drawn. Like-named read-outs stand apart in the source and are kept apart here.

Chain of IDO2 (Q6ZQW0 whole entry, species assumed): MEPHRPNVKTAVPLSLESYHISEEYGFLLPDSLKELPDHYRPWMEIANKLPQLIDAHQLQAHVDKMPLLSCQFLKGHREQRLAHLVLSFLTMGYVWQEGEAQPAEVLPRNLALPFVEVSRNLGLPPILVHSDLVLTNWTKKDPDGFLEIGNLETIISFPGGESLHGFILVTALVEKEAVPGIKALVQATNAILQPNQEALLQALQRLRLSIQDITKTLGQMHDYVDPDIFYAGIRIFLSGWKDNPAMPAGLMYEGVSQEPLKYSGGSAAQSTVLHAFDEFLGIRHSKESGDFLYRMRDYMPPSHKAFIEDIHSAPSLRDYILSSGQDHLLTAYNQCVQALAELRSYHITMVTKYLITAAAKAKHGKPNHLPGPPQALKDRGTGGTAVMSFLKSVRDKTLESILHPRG
Chain of Indoleamine 2,3-dioxygenase 1 (IDO1) (P14902 whole entry): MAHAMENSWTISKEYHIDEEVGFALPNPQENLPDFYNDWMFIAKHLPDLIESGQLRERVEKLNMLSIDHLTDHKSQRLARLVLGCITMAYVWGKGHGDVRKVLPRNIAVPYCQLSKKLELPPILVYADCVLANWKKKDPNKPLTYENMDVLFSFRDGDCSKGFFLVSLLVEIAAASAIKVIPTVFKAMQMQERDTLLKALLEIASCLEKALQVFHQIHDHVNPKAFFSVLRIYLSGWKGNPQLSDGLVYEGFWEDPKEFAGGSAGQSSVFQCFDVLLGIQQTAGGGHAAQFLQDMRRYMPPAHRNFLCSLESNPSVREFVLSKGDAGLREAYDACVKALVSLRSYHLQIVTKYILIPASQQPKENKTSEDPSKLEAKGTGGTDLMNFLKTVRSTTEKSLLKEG

On to `Cc1ccc(F)c2c(=O)n3c(nc12)C(=O)c1cc([N+](=O)[O-])ccc1-3` [Compound 40], for which the IC50 in test [1] (setting [3]) and in test [2] was 50 to 500 nM throughout.

`N#Cc1ccc2c(c1)C(O)C1Nc3cc(F)ccc3C(=O)N21` (centres unmarked) [Compound 31, 3-Fluoro-6-hydroxy-12-oxo-5,5a,6,12-tetrahydroindolo[2,1-b]quinazoline-8-carbonitrile]: the IC50 (commonly the concentration that gives 50% inhibition) in test [1] (setting [3]) is < 50 nM; in test [2], 50 to 500 nM. As for `O=C1c2cc([N+](=O)[O-])ccc2-n2c1nc1cc(F)cc(F)c1c2=O` [Compound 11, 1,3-Difluoro-8-nitroindolo[2,1-b]quinazoline-6,12-dione], the IC50 in test [1] is < 50 nM; in test [2], 50 to 500 nM. Consider `Cc1cc(C)c2nc3n(c(=O)c2c1)-c1ccc([N+](=O)[O-])cc1C3=O` [Compound 48, 2,4-Dimethyl-8-nitroindolo[2,1-b]quinazoline-6,12-dione], for which the IC50 in test [1] (setting [3]) and in test [2] was < 50 nM in each case.

As for `Cc1cccc2c(=O)n3c(nc12)C(=O)c1cc([N+](=O)[O-])ccc1-3` [Compound 42, 4-Methyl-8-nitroindolo[2,1-b]quinazoline-6,12-dione], the 50% inhibitory concentration (IC50) in test [1] (setting [3]) and in test [2] was < 50 nM in each case.

As to `NS(=O)(=O)c1ccc2c(c1)C(=O)c1nc3cc(F)ccc3c(=O)n1-2` [Compound 27], the IC50 is < 50 nM in test [1] (setting [3]) and 50 to 500 nM in test [2]. With `NS(=O)(=O)NCCNC(=O)c1ccc2c(c1)C(=O)c1nc3cc(Cl)ccc3c(=O)n1-2` [Compound 13, 3-Chloro-6,12-dioxo-N-(2-(sulfamoylamino)ethyl)-6,12-dihydroindolo[2,1-b]quinazoline-8-carboxamide], the IC50 in test [1] (setting [3]) and in test [2] was > 500 nM in each case. On to `Cc1cccc2nc3n(c(=O)c12)-c1ccc([N+](=O)[O-])cc1C3=O` [Compound 38, 1-Methyl-8-nitroindolo[2,1-b]quinazoline-6,12-dione], for which the IC50 in test [1] (setting [3]) and in test [2] was < 50 nM in each case. Consider `O=C1c2cc([N+](=O)[O-])ccc2-n2c1nc1c(Br)c(Cl)ccc1c2=O` [Compound 50, 4-Bromo-3-chloro-8-nitroindolo[2,1-b]quinazoline-6,12-dione], for which the IC50 is 50 to 500 nM in test [1] (setting [3]) and > 500 nM in test [2]. As to `O=C1c2cc(Br)ccc2-n2c1nc1cc(F)ccc1c2=O` [Compound 18, 8-Bromo-3-fluoroindolo[2,1-b]quinazoline-6,12-dione], the IC50 in test [1] (setting [3]) is 50 to 500 nM; in test [2] it was > 500 nM. With `O=C1c2c(F)cc(F)cc2NC2C(O)c3cc([N+](=O)[O-])ccc3N12` (centres unmarked) [Compound 32, 1,3-Difluoro-6-hydroxy-8-nitro-5a,6-dihydroindolo[2,1-b]quinazolin-12(5H)-one], the IC50 in test [1] (setting [3]) and in test [2] was 50 to 500 nM throughout.

As to `CC(C)(C)OC(=O)Nc1ccc2c(=O)n3c(nc2c1)C(=O)c1cc([N+](=O)[O-])ccc1-3` [Compound 17, tert-Butyl (8-nitro-6,12-dioxo-6,12-dihydroindolo[2,1-b]quinazolin-3-yl)carbamate], the IC50 in test [1] (setting [3]) was < 50 nM; in test [2], 50 to 500 nM.

As to `O=C1c2cc([N+](=O)[O-])ccc2-n2c1nc1c(Br)c(F)ccc1c2=O` [Compound 35], the IC50 in test [1] (setting [3]) is < 50 nM; in test [2], 50 to 500 nM. As for `CN1CCN(Cc2ccc3c(=O)n4c(nc3c2)C(=O)c2cc(F)ccc2-4)CC1` [Compound 15, 8-Fluoro-3-((4-methylpiperazin-1-yl)methyl)indolo[2,1-b]quinazoline-6,12-dione], the IC50 in test [1] (setting [3]) and in test [2] was 50 to 500 nM each time. With `O=C1c2cc([N+](=O)[O-])ccc2-n2c1nc1cc(F)ccc1c2=O` [Compound 2, 3-Fluoro-8-nitroindolo[2,1-b]quinazoline-6,12-dione], the IC50 in test [1] (setting [3]) and in test [2] was < 50 nM each time. With `NCCNC(=O)c1ccc2c(c1)C(=O)c1nc3cc(Cl)ccc3c(=O)n1-2` [Compound 10, N-(2-Aminoethyl)-3-chloro-6,12-dioxo-6,12-dihydroindolo[2,1-b]quinazoline-8-carboxamide], the IC50 in test [1] (setting [3]) was 50 to 500 nM; in test [2], > 500 nM. For `O=C(O)c1ccc2c(c1)C(=O)c1nc3cc(Cl)ccc3c(=O)n1-2` [Compound 4, 3-Chloro-6,12-dioxo-6,12-dihydroindolo[2,1-b]quinazoline-8-carboxylic Acid], in that order: > 500 nM and > 500 nM.

As to `NC(=O)c1ccc2c(c1)C(=O)c1nc3cc(Cl)cc(Cl)c3c(=O)n1-2` [Compound 23, 1,3-Dichloro-6,12-dioxoindolo[2,1-b]quinazoline-8-carboxamide], the IC50 in test [1] (setting [3]) and in test [2] was 50 to 500 nM throughout. In the case of `Cc1ccc2c(=O)n3c(nc2c1)C(=O)c1cc([N+](=O)[O-])ccc1-3` [Compound 1, 3-Methyl-8-nitroindolo[2,1-b]quinazoline-6,12-dione], the results for the IC50 in test [1] (setting [3]) and in test [2] were 50 to 500 nM and < 50 nM, respectively. For `NCCNC(=O)c1ccc2c(c1)C(=O)c1nc3cc(Cl)cc(Cl)c3c(=O)n1-2` [Compound 19, N-(2-Aminoethyl)-1,3-dichloro-6,12-dioxo-6,12-dihydroindolo[2,1-b]quinazoline-8-carboxamide], the IC50 in test [1] (setting [3]) and in test [2] was > 500 nM in each case. With `N#Cc1ccc2c(c1)C(=O)c1nc3c(Br)cccc3c(=O)n1-2` [Compound 46, 4-bromo-6,12-dioxo-6,12-dihydroindolo[2,1-b]quinazoline-8-carbonitrile], the IC50 in test [1] (setting [3]) was < 50 nM; in test [2] it was 50 to 500 nM. As to `NC(=O)c1ccc2c(c1)C(=O)c1nc3cc(Cl)ccc3c(=O)n1-2` [Compound 8, 3-Chloro-6,12-dioxo-6,12-dihydroindolo[2,1-b]quinazoline-8-carboxamide], the IC50 in test [1] (setting [3]) and in test [2] was 50 to 500 nM in each case. Regarding `CNC(=O)c1ccc2c(c1)C(=O)c1nc3cc(Cl)cc(Cl)c3c(=O)n1-2` [Compound 20, 1,3-Dichloro-N-methyl-6,12-dioxo-6,12-dihydroindolo[2,1-b]quinazoline-8-carboxamide], the IC50 in test [1] (setting [3]) and in test [2] was 50 to 500 nM each time. On to `O=C(O)c1ccc2c(c1)C(=O)c1nc3cc(Cl)cc(Cl)c3c(=O)n1-2` [Compound 22, 1,3-Dichloro-6,12-dioxoindolo[2,1-b]quinazoline-8-carboxylic Acid], for which the IC50 in test [1] (setting [3]) and in test [2] was > 500 nM throughout. For `O=C1c2cc([N+](=O)[O-])ccc2-n2c1nc1c(F)cccc1c2=O` [Compound 41, 4-Fluoro-8-nitroindolo[2,1-b]quinazoline-6,12-dione], the IC50 in test [1] (setting [3]) was < 50 nM; in test [2], 50 to 500 nM. For `O=C1c2cc(SCc3ccccc3)ccc2-n2c1nc1cc(F)ccc1c2=O` [Compound 28], in that order: < 50 nM and 50 to 500 nM. For `Nc1ccc2c(c1)C(=O)c1nc3cc(Cl)ccc3c(=O)n1-2` [Compound 5, 8-Amino-3-chloroindolo[2,1-b]quinazoline-6,12-dione], the IC50 was 50 to 500 nM in test [1] (setting [3]) and > 500 nM in test [2].

`O=c1c2c(F)cc(F)cc2nc2n1-c1ccc([N+](=O)[O-])cc1C2` [Compound 34, 1,3-Difluoro-8-nitroindolo[2,1-b]quinazolin-12(6H)-one]: the IC50 is 50 to 500 nM in test [1] (setting [3]) and > 500 nM in test [2]. For the molecule `N#Cc1ccc2c(c1)C(=O)c1nc3cc(F)ccc3c(=O)n1-2` [Compound 12, 3-Fluoro-6,12-dioxo-6,12-dihydroindolo[2,1-b]quinazoline-8-carbonitrile], the IC50 in test [1] (setting [3]) and in test [2] was < 50 nM throughout. For `Nc1ccc2c(=O)n3c(nc2c1)C(=O)c1cc([N+](=O)[O-])ccc1-3` [Compound 16, 3-Amino-8-nitroindolo[2,1-b]quinazoline-6,12-dione], the IC50 in test [1] (setting [3]) was < 50 nM; in test [2], 50 to 500 nM. Regarding `NS(=O)(=O)NCCNC(=O)c1ccc2c(c1)C(=O)c1nc3cc(Cl)cc(Cl)c3c(=O)n1-2` [Compound 29, 1,3-Dichloro-6,12-dioxo-N-(2-(sulfamoylamino)ethyl)-6,12-dihydroindolo[2,1-b]quinazoline-8-carboxamide], the 50% inhibitory concentration (IC50) in test [1] (setting [3]) and in test [2] was > 500 nM each time. In the case of `O=C1c2cc([N+](=O)[O-])ccc2-n2c1nc1c(Br)cccc1c2=O` [Compound 43, 4-Bromo-8-nitroindolo[2,1-b]quinazoline-6,12-dione], the figures for the IC50 in test [1] (setting [3]) and in test [2] were < 50 nM and 50 to 500 nM, respectively.

As to `N#Cc1ccc2c(c1)C(=O)c1nc3cc(Cl)ccc3c(=O)n1-2` [Compound 3, 3-Chloro-6,12-dioxo-6,12-dihydroindolo[2,1-b]quinazoline-8-carbonitrile], the IC50 in test [1] (setting [3]) and in test [2] was < 50 nM throughout. As for `O=C1c2cc([N+](=O)[O-])ccc2-n2c1nc1c(Br)cc(F)cc1c2=O` [Compound 45, 4-Bromo-2-fluoro-8-nitroindolo[2,1-b]quinazoline-6,12-dione], the concentration for half-maximal inhibition (IC50) in test [1] (setting [3]) and in test [2] was 50 to 500 nM throughout. As to `NCCNC(=O)c1ccc2c(c1)/C(=N\O)c1nc3cc(Cl)ccc3c(=O)n1-2` [Compound 61], the IC50 in test [1] (setting [3]) was > 500 nM.

For the molecule `N#Cc1ccc2c(c1)C(=O)c1nc3c(Br)ccc(F)c3c(=O)n1-2` [Compound 111], in test [1] (setting [3]), the IC50 was in the range of 50 to 500 nM.

With `O=C1c2cc(SCc3ccccc3)ccc2-n2c1nc1c(Nc3ccc(F)cc3)cccc1c2=O` [Compound 120, 8-(Benzylthio)-4-((4-fluorophenyl)amino)indolo[2,1-b]quinazoline-6,12-dione], the IC50 in test [1] (setting [3]) was > 500 nM. Take `NS(=O)(=O)c1ccc2c(c1)C(=O)c1nc3cc(Cl)ccc3c(=O)n1-2` [Compound 75]: the IC50 in test [1] (setting [3]) was in the range of 50 to 500 nM. Molecule `CO/N=C1/c2cc(F)ccc2-n2c1nc1ccc(CN(C)C)cc1c2=O` [Compound 138, (Z)-2-((dimethylamino)methyl)-8-fluoro-6-(methoxyimino)indolo[2,1-b]quinazolin-12(6H)-one Trifluoroacetate Salt] showed a half-inhibitory concentration (IC50) in test [1] (setting [3]) of 50 to 500 nM. Still for that read-out and setting: then `O=C1c2cc([N+](=O)[O-])ccc2-n2c1nc1ccc(F)cc1c2=O` [Compound 54, 2-Fluoro-8-nitroindolo[2,1-b]quinazoline-6,12-dione], with < 50 nM.
